Assay results: patent US12246076B2, “Radiolabeled compounds for in vivo imaging of gastrin-releasing peptide receptor (GRPR) and treatment of GRPR-related disorders” (PROVINCIAL HEALTH SERVICES AUTHORITY, priority 2022, dated 2025)
Numbered stars: 1 amine (or outer) side, 2 acyl side, 3 side chain; on linkers, the order of the positions; unused ones are H or OH. Square brackets hold non-standard residues; d marks the D form. Peptide text beside a SMILES is read from it. * marks the point of attachment. DOTA = O=C(O)CN1CCN(CC(=O)O)CCN(CC(=O)*)CCN(CC(=O)O)CC1; Leuψ(CH2N)ThzNH2 = CC(C)C[C@@H](CN1CSC[C@H]1C(N)=O)N*; X1 = O=C(CN1CCC(N[*:1])CC1)[*:2]; Tle = CC(C)(C)[C@H](N)C(=O)O

Key:
[1] = Ex vivo biodistribution in PC-3 tumor-bearing mice; conditions: male, NRG, mouse, iv, total radioactivity, 1 h post-injection, mice bearing PC-3 tumor xenografts, n = 4
Method: (§1) All imaging and biodistribution studies were performed using male NOD.Cg-Rag1^tm1MoM II2rg^tm1WI/SzJ (NRG) mice and conducted according to the guidelines established by the Canadian Council on Animal Care and approved by Animal Ethics Committee of the University of British Columbia. For tumor inoculations, mice were anesthetized by inhalation with 2% isoflurane in oxygen and implanted subcutaneously with 5×10^6 PC-3 cells below the left shoulder. Imaging and biodistribution studies were performed only after tumors grew to 5-8 mm in diameter.
(§2) For PET/CT imaging studies, ˜3-4 MBq of the ^68Ga-labeled tracer was injected through the tail vein. Mice were allowed to recover and roam freely in the cages after injecting the tracer. At 45 min post-injection (p.i.), mice were sedated again and positioned on the scanner. First, a 10 min CT scan was conducted for localization and attenuation correction for reconstruction of PET images, before a 10 min PET image was acquired. Heating pads were used during the entire procedure to keep the mice warm. For ex vivo biodistribution studies, mice were injected with ˜1.5-3 MBq of the ^68Ga-labeled tracer. At 1 h p.i., mice were euthanized, blood was drawn from heart, and organs/tissues of interest were collected, rinsed with PBS, blotted dry, weighed, and counted using an automated gamma counter. The uptake in each organ/tissue was normalized to the injected dose and expressed as the percentage of the injected dose per gram of tissue (% ID/g).
(§3) All imaging and biodistribution studies were performed using male NOD.Cg-Rag1tm1Mom II2rgtm1WjI/SzJ (NRG) mice and conducted according to the guidelines established by the Canadian Council on Animal Care and approved by Animal Ethics Committee of the University of British Columbia. For tumor inoculations, mice were anesthetized by inhalation with 2% isoflurane in oxygen and implanted subcutaneously with 5×10^6 PC-3 cells below the left shoulder. Imaging and biodistribution studies were performed only after tumors grew to 5-8 mm in diameter.
(§4) For PET/CT imaging studies, ˜5 MBq of the ^68Ga-labeled tracer was injected through the tail vein. Mice were allowed to recover and roam freely in the cages after injecting the tracer. At 45 min post-injection (p.i.), mice were sedated again and positioned on the scanner. First, a 10 min CT scan was conducted for localization and attenuation correction for reconstruction of PET images, before a 10 min PET image was acquired. Heating pads were used during the entire procedure to keep the mice warm. For ex vivo biodistribution studies, mice were injected with ˜3 MBq of the 68Ga-labeled tracer. At 1 h p.i., mice were euthanized, blood was drawn from heart, and organs/tissues of interest were collected, rinsed with PBS, blotted dry, weighed, and counted using an automated gamma counter.

in vivo = conditions: male, NRG, mouse, iv, total radioactivity
Method: as §1, §2, §3, §4

[2] = PC-3 tumor, Biodistribution PC3 tumor Mean
[3] = adrenal, Biodistribution Adrenal Mean
[4] = bone, Biodistribution Bone Mean
[5] = brain, Biodistribution Brain Mean
[6] = heart, Biodistribution Heart Mean
[7] = kidneys, Biodistribution Kidneys Mean
[8] = large intestine, Biodistribution Large Intestine Mean
[9] = liver, Biodistribution Liver Mean
[10] = lungs, Biodistribution Lungs Mean
[11] = muscle, Biodistribution Muscle Mean
[12] = pancreas, Biodistribution Pancreas Mean
[13] = small intestine, Biodistribution Small Intestine Mean
[14] = spleen, Biodistribution Spleen Mean
[15] = stomach, Biodistribution Stomach Mean
[16] = testes, Biodistribution Testes Mean
[17] = whole blood, Biodistribution Blood Mean
[18] = seminal, Biodistribution Seminal Mean
[19] = Biodistribution Large Intestine Mean
[20] = Biodistribution Small Intestine Mean

tissue uptake at 1 h [1, 2] | tissue uptake at 1 h [1, 18] | SMILES | tissue uptake at 1 h [1, 3] | tissue uptake at 1 h [1, 4] | tissue uptake at 1 h [1, 5] | tissue uptake at 1 h ([1]; fat, Biodistribution Fat Mean) | tissue uptake at 1 h [1, 6] | tissue uptake at 1 h [1, 7] | tissue uptake at 1 h [1, 8] | tissue uptake at 1 h [1, 9] | tissue uptake at 1 h [1, 10] | tissue uptake at 1 h [1, 11] | tissue uptake at 1 h [1, 12] | tissue uptake at 1 h [1, 13] | tissue uptake at 1 h [1, 14] | tissue uptake at 1 h [1, 15] | tissue uptake at 1 h [1, 16] | tissue uptake at 1 h [1, 17] | also measured
11.2 %ID/g | 0.15 %ID/g | CC(C)C[C@@H](CN1CSC[C@H]1C(N)=O)NC(=O)[C@H](Cc1c[nH]cn1)NC(=O)CNC(=O)[C@@H](NC(=O)[C@H](C)NC(=O)[C@H](Cc1c[nH]c2ccccc12)NC(=O)[C@H](CCC(N)=O)NC(=O)[C@@H](Cc1ccccc1)NC(=O)CN1CCC(NC(=O)CN2CCN(CC(=O)O)CCN(CC(=O)O)CCN(CC(=O)O)CC2)CC1)C(C)(C)C [^68Ga-LW01158, metal not drawn] ({DOTA}-[X1][dF]QWA[Tle]GH-{Leuψ(CH2N)ThzNH2}) | – | – | – | – | – | – | – | – | – | – | 12 %ID/g | – | – | – | – | – | tissue uptake at 1 h (in vivo; Biodistribution Adrenal Mean): 1.37 %ID/g; tissue uptake at 1 h (in vivo; Biodistribution Blood Mean): 1.14 %ID/g; tissue uptake at 1 h (in vivo; Biodistribution Bone Mean): 0.13 %ID/g; tissue uptake at 1 h (in vivo; Biodistribution Brain Mean): 0.03 %ID/g; tissue uptake at 1 h (in vivo; Biodistribution Fat Mean): 0.07 %ID/g; tissue uptake at 1 h (in vivo; Biodistribution Heart Mean): 0.34 %ID/g; tissue uptake at 1 h (in vivo; Biodistribution Kidneys Mean): 2.98 %ID/g; tissue uptake at 1 h (in vivo; [19]): 1.41 %ID/g; tissue uptake at 1 h (in vivo; Biodistribution Liver Mean): 4.33 %ID/g; tissue uptake at 1 h (in vivo; Biodistribution Lungs Mean): 1.19 %ID/g; tissue uptake at 1 h (in vivo; Biodistribution Muscle Mean): 0.2 %ID/g; tissue uptake at 1 h (in vivo; [20]): 2.46 %ID/g; tissue uptake at 1 h (in vivo; Biodistribution Spleen Mean): 0.6 %ID/g; tissue uptake at 1 h (in vivo; Biodistribution Stomach Mean): 1.3 %ID/g; tissue uptake at 1 h (in vivo; Biodistribution Testes Mean): 0.24 %ID/g
16.6 %ID/g | 0.1 %ID/g | CC(C)C[C@H](NC(=O)[C@H](Cc1cnc[nH]1)N(C)C(=O)CNC(=O)[C@@H](NC(=O)[C@H](C)NC(=O)[C@H](Cc1c[nH]c2ccccc12)NC(=O)[C@H](CCC(N)=O)NC(=O)[C@@H](Cc1ccccc1)NC(=O)CN1CCC(NC(=O)CN2CCN(CC(=O)O)CCN(CC(=O)O)CCN(CC(=O)O)CC2)CC1)C(C)(C)C)C(=O)N1CSC[C@H]1C(N)=O [^68Ga-LW01110, metal not drawn] | – | – | – | – | – | – | – | – | – | – | – | – | – | – | – | – | tissue uptake at 1 h (in vivo; Biodistribution Adrenal Mean): 1.64 %ID/g; tissue uptake at 1 h (in vivo; Biodistribution Blood Mean): 0.69 %ID/g; tissue uptake at 1 h (in vivo; Biodistribution Bone Mean): 0.12 %ID/g; tissue uptake at 1 h (in vivo; Biodistribution Brain Mean): 0.03 %ID/g; tissue uptake at 1 h (in vivo; Biodistribution Fat Mean): 0.09 %ID/g; tissue uptake at 1 h (in vivo; Biodistribution Heart Mean): 0.23 %ID/g; tissue uptake at 1 h (in vivo; Biodistribution Kidneys Mean): 3.26 %ID/g; tissue uptake at 1 h (in vivo; [19]): 1.27 %ID/g; tissue uptake at 1 h (in vivo; Biodistribution Liver Mean): 0.41 %ID/g; tissue uptake at 1 h (in vivo; Biodistribution Lungs Mean): 0.59 %ID/g; tissue uptake at 1 h (in vivo; Biodistribution Muscle Mean): 0.14 %ID/g; tissue uptake at 1 h (in vivo; Biodistribution Pancreas Mean): 8.99 %ID/g; tissue uptake at 1 h (in vivo; [20]): 2.11 %ID/g; tissue uptake at 1 h (in vivo; Biodistribution Spleen Mean): 0.29 %ID/g; tissue uptake at 1 h (in vivo; Biodistribution Stomach Mean): 0.94 %ID/g; tissue uptake at 1 h (in vivo; Biodistribution Testes Mean): 0.16 %ID/g
7.46 %ID/g | 0.23 %ID/g | CC(C)C[C@@H](CN1CSC[C@H]1C(N)=O)NC(=O)[C@H](Cc1c[nH]cn1)NC(=O)CNC(=O)[C@@H](NC(=O)[C@H](C)NC(=O)[C@H](Cc1c[nH]c2ccccc12)NC(=O)[C@H](Cc1c[nH]cn1)NC(=O)[C@@H](Cc1ccccc1)NC(=O)CN1CCC(NC(=O)CN2CCN(CC(=O)O)CCN(CC(=O)O)CCN(CC(=O)O)CC2)CC1)C(C)C [^68Ga-LW01102, metal not drawn] ({DOTA}-[X1][dF]HWAVGH-{Leuψ(CH2N)ThzNH2}) | 1.36 %ID/g | 0.13 %ID/g | 0.04 %ID/g | 0.09 %ID/g | 0.36 %ID/g | 6.3 %ID/g | 1.25 %ID/g | 3.22 %ID/g | 1.55 %ID/g | 0.18 %ID/g | 13.1 %ID/g | 2.85 %ID/g | 0.52 %ID/g | 1.23 %ID/g | 0.33 %ID/g | 1.13 %ID/g | –
12.4 %ID/g | 3.8 %ID/g | CC(C)C[C@@H](CN1CCC[C@H]1C(N)=O)NC(=O)[C@H](Cc1c[nH]cn1)NC(=O)CN(C)C(=O)[C@@H](NC(=O)[C@H](C)NC(=O)[C@H](Cc1c[nH]c2ccccc12)NC(=O)[C@H](CCC(N)=O)NC(=O)[C@@H](Cc1ccccc1)NC(=O)CN1CCC(NC(=O)CN2CCN(CC(=O)O)CCN(CC(=O)O)CCN(CC(=O)O)CC2)CC1)C(C)C [^68Ga-LW02045, metal not drawn] | 0.44 %ID/g | 0.07 %ID/g | 0.02 %ID/g | 0.03 %ID/g | 0.14 %ID/g | 2.54 %ID/g | 0.34 %ID/g | 0.37 %ID/g | 1.08 %ID/g | 0.1 %ID/g | 1.37 %ID/g | 0.48 %ID/g | 0.18 %ID/g | 0.35 %ID/g | 0.12 %ID/g | 0.43 %ID/g | –

SMILES | tissue uptake at 1 h [1, 2] | tissue uptake at 1 h [1, 18] | tissue uptake at 1 h [1, 3] | tissue uptake at 1 h [1, 4] | tissue uptake at 1 h [1, 5] | tissue uptake at 1 h ([1]; fat, Biodistribution Fat Mean) | tissue uptake at 1 h [1, 6] | tissue uptake at 1 h [1, 7] | tissue uptake at 1 h [1, 8] | tissue uptake at 1 h [1, 9] | tissue uptake at 1 h [1, 10] | tissue uptake at 1 h [1, 11] | tissue uptake at 1 h [1, 12] | tissue uptake at 1 h [1, 13] | tissue uptake at 1 h [1, 14] | tissue uptake at 1 h [1, 15] | tissue uptake at 1 h [1, 16] | tissue uptake at 1 h [1, 17] | also measured
CC(C)C[C@@H](CN1CSC[C@H]1C(N)=O)NC(=O)[C@H](Cc1c[nH]cn1)NC(=O)CNC(=O)[C@@H](NC(=O)[C@H](C)NC(=O)[C@H](Cc1c[nH]c2ccccc12)NC(=O)[C@H](CCC(N)=O)NC(=O)[C@@H](Cc1ccc2ccccc2c1)NC(=O)CN1CCC(NC(=O)CN2CCN(CC(=O)O)CCN(CC(=O)O)CCN(CC(=O)O)CC2)CC1)C(C)C [^68Ga-LW01059, metal not drawn] | 6.84 %ID/g | – | 1.81 %ID/g | 0.42 %ID/g | 0.06 %ID/g | 0.19 %ID/g | 0.66 %ID/g | 4.49 %ID/g | 0.66 %ID/g | 21.5 %ID/g | 3.05 %ID/g | 0.28 %ID/g | 7.26 %ID/g | 2.15 %ID/g | 0.68 %ID/g | 1.1 %ID/g | 0.33 %ID/g | 2.16 %ID/g | –
CC(C)C[C@H](NC(=O)[C@H](Cc1c[nH]cn1)NC(=O)CNC(=O)[C@@H](NC(=O)[C@H](C)NC(=O)[C@H](Cc1c[nH]c2ccccc12)NC(=O)[C@H](CCC(N)=O)NC(=O)[C@@H](Cc1ccc2ccccc2c1)NC(=O)CN1CCC(NC(=O)CN2CCN(CC(=O)O)CCN(CC(=O)O)CCN(CC(=O)O)CC2)CC1)C(C)C)C(=O)N1CSC[C@H]1C(N)=O [^68Ga-LW01029, metal not drawn] | 4.7 %ID/g | 0.13 %ID/g | 0.82 %ID/g | 0.19 %ID/g | 0.04 %ID/g | 0.18 %ID/g | 0.36 %ID/g | 4.73 %ID/g | 0.96 %ID/g | 0.63 %ID/g | 1.82 %ID/g | 0.23 %ID/g | 2.56 %ID/g | 1.05 %ID/g | 0.45 %ID/g | 0.77 %ID/g | 0.33 %ID/g | 1.08 %ID/g | –
CC(C)C[C@H](NC(=O)[C@H](Cc1c[nH]cn1)NC(=O)CNC(=O)[C@@H](NC(=O)[C@H](C)NC(=O)[C@H](Cc1c[nH]c2ccccc12)NC(=O)[C@H](CCC(N)=O)NC(=O)[C@@H](Cc1ccccc1)NC(=O)CN1CCC(NC(=O)CN2CCN(CC(=O)O)CCN(CC(=O)O)CCN(CC(=O)O)CC2)CC1)C(C)C)C(=O)N1CSC[C@H]1C(N)=O [^68Ga-LW01025, metal not drawn] | 6.2 %ID/g | 0.06 %ID/g | 0.54 %ID/g | 0.24 %ID/g | 0.03 %ID/g | 0.09 %ID/g | 0.13 %ID/g | 2.37 %ID/g | – | 0.29 %ID/g | 0.34 %ID/g | 0.13 %ID/g | 1.28 %ID/g | 0.56 %ID/g | 0.23 %ID/g | 0.54 %ID/g | 0.16 %ID/g | 0.34 %ID/g | –
